Data: patent US10821115B2, “Compounds that inhibit Mcl-1 protein” (priority 2017, dated 2020)
Like-named read-outs stand apart in the source and are kept apart here.

Key:
[1] = biological target: recombinant human Mcl-1 (residues 171-327) / Bim interaction (Homo sapiens (Human), UniProt Q07820); experiment: biochemical; assay type: binding; settings: read-out: Mcl-1 HTRF IC50
[2] = system: human multiple myeloma cell line, OPM-2; experiment: Cell viability assay (OPM-2 10 FBS), CellTiter-Glo; assay type: cell-based
Outline: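 Serially diluted test compounds are incubated 16 h with cells (3000/well) in RPMI 1640 supplemented with 10% FBS. Viability is then measured by luminescence and IC50 calculated by 4-parameter logistic fit.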

[3] = 0.1 nM Mcl-1(171-327), 0.05 nM biotin-Bim (51-76)
[4] = Homo sapiens, OPM-2, 16 h, read-out: OPM-2 10% FBS IC50 IP, OPM-2 cells, 10% FBS, 16 h incubation
[5] = TR-FRET, Mcl-1(171-327) / biotin-Bim (51-76)
[6] = read-out: OPM-2 10% FBS IC50 IP, OPM-2 cells, 10% FBS, 16 h, CellTiter-Glo
[7] = Homo sapiens, OPM-2, 16 h, read-out: OPM-2 10% FBS IC50 IP, OPM-2 cells, 10% FBS, 16 h, CellTiter-Glo

recombinant human Mcl-1 (residues 171-327) / Bim interaction, sequence (Q07820 171-327): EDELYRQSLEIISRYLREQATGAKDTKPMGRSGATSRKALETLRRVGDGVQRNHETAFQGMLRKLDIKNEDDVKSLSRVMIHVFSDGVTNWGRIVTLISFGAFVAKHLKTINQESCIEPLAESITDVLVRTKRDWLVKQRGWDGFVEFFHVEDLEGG

CO[C@]1(CN2CCN(C(C)C)C(=O)C2)/C=C/C[C@H](C)[C@@H](C)S(=O)(=O)NC(=O)c2ccc3c(c2)N(C[C@@H]2CC[C@H]21)C[C@@]1(CCCc2cc(Cl)ccc21)CO3 [Example 323, (1S,3′R,6′R,7′R,8′E,11′S,12′R)-6-chloro-7′-methoxy-11′,12′-dimethyl-7′-((4-(1-methylethyl)-3-oxo-1-piperazinyl)methyl)-3,4-dihydro-2H,15′H-spiro[naphthalene-1,22′-[20]oxa[13]thia[1,14]diazatetracyclo [14.7.2.0~3,6~.0~19,24~]pentacosa[8,16,18,24]tetraen]-15′-one 13′,13′-dioxide] was tested. Which IC50 [1, 3] did it give?
The IC50 was 0.166 nM.

What about the IC50 [2, 4] of the same compound?
The IC50 was 169 nM.

How did the IC50 [1, 5] turn out when C[C@@H]1[C@@H](C)C/C=C/[C@@](O)(C#CCN2CCS(=O)(=O)CC2)[C@@H]2CC[C@H]2CN2C[C@@]3(CCCc4cc(Cl)ccc43)COc3ccc(cc32)C(=O)NS1(=O)=O [Example 100388, (1S,3′R,6′R,7′S,8′E,11′S,12′R)-6-chloro-7′-(3-(1,1-dioxido-4-thiomorpholinyl)-1-propyn-1-yl)-7′-hydroxy-11′,12′-dimethyl-3,4-dihydro-2H,15′H-spiro[naphthalene-1,22′-[20]oxa[13]thia[1,14]diazatetracyclo [14.7.2.0~3,6~.0~19,24~]pentacosa[8,16,18,24]tetraen]-15′-one 13′,13′-dioxide] was run?
The IC50 was 1.17 nM.

And the IC50 [2, 6]?
The IC50 was 2160 nM.

For CO[C@@]1(CN2CCN([C@H]3CCOC3)CC2)/C=C/C[C@H](C)[C@@H](C)S(=O)(=O)NC(=O)c2ccc3c(c2)N(C[C@@H]2CC[C@H]21)C[C@@]1(CCCc2cc(Cl)ccc21)CO3 (single isomer, unassigned) [Example 285], which IC50 [1, 3] is on record?
Its IC50 is 0.107 nM.

And the IC50 ([2]; read-out: OPM-2 10% FBS IC50 IP, OPM-2 cells, 10% FBS, 16 h incubation)?
Its IC50 is 62 nM.

Which results are given for CO[C@@H](C(=O)N(C)C)[C@]1(O)/C=C/C[C@H](C)[C@@H](C)S(=O)(=O)NC(=O)c2ccc3c(c2)N(C[C@@H]2CC[C@H]21)C[C@@]1(CCCc2cc(Cl)ccc21)CO3 [Example 100285, (2R)-2-((1S,3′R,6′R,7′S,8′E,11′S,12′R)-6-chloro-7′-hydroxy-11′,12′-dimethyl-13′,13′-dioxido-15′-oxo-3,4-dihydro-2H-spiro[naphthalene-1,22′-[20]oxa[13]thia[1,14]diazatetracyclo [14.7.2.0~3,6~.0~19,24~]pentacosa[8,16,18,24]tetraen]-7′-yl)-2-methoxy-N,N-dimethylethanamide]?
IC50 [1, 5]: 0.241 nM; IC50 [2, 7]: 642 nM

What does the source list for C[C@@H]1[C@@H](C)C/C=C/C(O)(Cc2nccn2C)[C@@H]2CC[C@H]2CN2C[C@@]3(CCCc4cc(Cl)ccc43)COc3ccc(cc32)C(=O)NS1(=O)=O (stereo in doubt) [Example 100524, (1S,3′R,6′R,7′R,8′E,11′S,12′R)-6-chloro-7′-hydroxy-11′,12′-dimethyl-7′-((1-methyl-1H-imidazol-2-yl)methyl)-3,4-dihydro-2H,15′H-spiro[naphthalene-1,22′-[20]oxa[13]thia[1,14]diazatetracyclo [14.7.2.0~3,6~.0~19,24~]pentacosa[8,16,18,24]tetraen]-15′-one 13′,13′-dioxide]?
IC50 [1, 5]: 0.99 nM; IC50 [2, 7]: 842 nM

How did the IC50 [1, 5] turn out when C[C@@H]1[C@@H](C)C/C=C/[C@@](O)(C#CCCN(C)C)[C@@H]2CC[C@H]2CN2C[C@@]3(CCCc4cc(Cl)ccc43)COc3ccc(cc32)C(=O)NS1(=O)=O [Example 100309, (1S,3′R,6′R,7′S,8′E,11′S,12′R)-6-chloro-7′-(4-(dimethylamino)-1-butyn-1-yl)-7′-hydroxy-11′,12′-dimethyl-3,4-dihydro-2H,15′H-spiro[naphthalene-1,22′-[20]oxa[13]thia[1,14]diazatetracyclo [14.7.2.0~3,6~.0~19,24~]pentacosa[8,16,18,24]tetraen]-15′-one 13′,13′-dioxide] was run?
Its IC50 is 0.244 nM.

And the IC50 [2, 6]?
The IC50 was 385 nM.

Which results are given for CC[C@@]1(O)/C=C/C[C@H](C)[C@@H](C)S(=O)(=O)NC(=O)c2ccc3c(c2)N(C[C@@H]2CC[C@H]21)C[C@@]1(CCCc2cc(Cl)ccc21)CO3 [Example 100206, (1S,3′R,6′R,7′R,8′E,11′S,12′R)-6-chloro-7′-ethyl-7′-hydroxy-11′,12′-dimethyl-3,4-dihydro-2H,15′H-spiro[naphthalene-1,22′-[20]oxa[13]thia[1,14]diazatetracyclo [14.7.2.0~3,6~.0~19,24~]pentacosa[8,16,18,24]tetraen]-15′-one 13′,13′-dioxide]?
IC50 [1, 5]: 1.26 nM; IC50 [2, 7]: 1750 nM

For CO[C@]1(C[C@H](O)C(C)C)/C=C/C[C@H](C)[C@@H](C)S(=O)(=O)NC(=O)c2ccc3c(c2)N(C[C@@H]2CC[C@H]21)C[C@@]1(CCCc2cc(Cl)ccc21)CO3 [Example 100358, (1S,3′R,6′R,7′R,8′E,11′S,12′R)-6-chloro-7′-((2S)-2-hydroxy-3-methylbutyl)-7′-methoxy-11′,12′-dimethyl-3,4-dihydro-2H,15′H-spiro[naphthalene-1,22′-[20]oxa[13]thia[1,14]diazatetracyclo [14.7.2.0~3,6~.0~19,24~]pentacosa[8,16,18,24]tetraen]-15′-one 13′,13′-dioxide], which IC50 [1, 5] is on record?
The IC50 was 0.118 nM.

What about the IC50 [2, 6] of the same compound?
The IC50 was 81 nM.

For CCO[C@@]1(CN2CCN3CCOC[C@@H]3C2)/C=C/C[C@H](C)[C@@H](CC2CCC2)S(=O)(=O)NC(=O)c2ccc3c(c2)N(C[C@@H]2CC[C@H]21)C[C@@]1(CCCc2cc(Cl)ccc21)CO3 [Example 44, (1S,3′R,6′R,7′S,8′E,11′S,12′R)-6-chloro-12′-(cyclobutylmethyl)-7′-ethoxy-7′-((9aS)-hexahydropyrazino[2,1-c][1,4]oxazin-8(1H)-ylmethyl)-11′-methyl-3,4-dihydro-2H,15′H-spiro[naphthalene-1,22′-[20]oxa[13]thia[1,14]diazatetracyclo [14.7.2.0~3,6~.0~19,24~]pentacosa[8,16,18,24]tetraen]-15′-one 13′,13′-dioxide], which IC50 [1, 3] is on record?
Its IC50 is 0.288 nM.

And the IC50 [2, 4]?
The IC50 was 1360 nM.

Which results are given for CC[C@@H]1CCCC[C@](CO)(OC)[C@@H]2CC[C@H]2CN2C[C@@]3(CCCc4cc(Cl)ccc43)COc3ccc(cc32)C(=O)NS1(=O)=O [Example 100041, (1S,3′R,6′R,7′S,12′R)-6-chloro-12′-ethyl-7′-(hydroxymethyl)-7′-methoxy-3,4-dihydro-2H,15′H-spiro[naphthalene-1,22′-[20]oxa[13]thia[1,14]diazatetracyclo [14.7.2.0~3,6~.0~19,24~]pentacosa[16,18,24]trien]-15′-one 13′,13′-dioxide]?
IC50 [1, 5]: 3.36 nM; IC50 [2, 7]: 4990 nM

Which results are given for C[C@@H]1[C@@H](C)C/C=C/[C@](C)(O)[C@@H]2CC[C@H]2CN2C[C@@]3(CCCc4cc(Cl)ccc43)COc3ccc(nc32)C(=O)NS1(=O)=O (single isomer, unassigned) [Example 100600]?
IC50 [1, 5]: 0.445 nM; IC50 [2, 7]: 528 nM

Which results are given for COCC[C@@H]1[C@@H](C)C/C=C/[C@](CN2CCN(Cc3noc(C)n3)CC2)(OC)[C@@H]2CC[C@H]2CN2C[C@@]3(CCCc4cc(Cl)ccc43)COc3ccc(nc32)C(=O)NS1(=O)=O [Example 26, (1S,3′R,6′R,7′S,8′E,11′S,12′R)-6-chloro-7′-methoxy-12′-(2-methoxyethyl)-11′-methyl-7′-((4-((5-methyl-1,2,4-oxadiazol-3-yl)methyl)-1-piperazinyl)methyl)-3,4-dihydro-2H,15′H-spiro[naphthalene-1,22′-[20]oxa[13]thia[1,14,25]triazatetracyclo [14.7.2.0~3,6~.0~19,24~]pentacosa[8,16,18,24]tetraen]-15′-one 13′,13′-dioxide]?
IC50 [1, 3]: 0.079 nM; IC50 [2, 4]: 32 nM
